Key:
[1] = system: Jurkat; test: Proliferation (3H-thymidine) of Jurkat; type: cell-based, human
Excerpt: (§1) CCRF-CEM, CEM/C1, CEM/C2, CEM-C7, Jurkat, Loucy, Molt-4, HSB-2, SUP-T1, Hut 78, HH, Hut 102, MO, and H9 T-leukemia and T-lymphoma cell lines were purchased from the American Type Culture Collection (Manassas, Va., USA). All of the cell lines were initially expanded and cryopreserved within one month of receipt. Cells were typically used for 6 months at which time a fresh vial of cryopreserved cells was used. Total T cells from healthy donors were isolated via negative selection followed by positive selection using a CD3+ selection kit (Invitrogen, Carlsbad, Calif.). T cells were isolated from patients with T-ALL bone marrow or peripheral blood samples containing more than 70% leukemia cells using a CD2+ isolation kit (STEMCELL Technologies, Vancouver, Canada). All tissues were collected under institutional IRB-approved protocols and all participants gave written informed assent/consent. For in vitro experiments, T-ALL cells were cultured in AIM-V medium supplemented with 20% human AB serum in the presence of recombinant human stem cell factor (50 ng/mL; Amgen, Thousand Oaks, Calif.), insulin (20 nM; Sigma-Aldrich, St Louis, Mo., USA) and IL-7 (50 ng/mL; R&D Systems, Minneapolis, Minn., USA). In other experiments, protein lysate was collected using the Full Moon Biosystems (Sunnyvale, Calif., USA) buffer prior to protein examination by western blot or protein array.
(§2) Cells were cultured in a 96-well plate (Corning Costar, Corning, N.Y., USA) with various concentrations of TLR ligands 1-9, starting at 10 μg/ml, in a final volume of 200 ul. TLR ligands were diluted 2-fold. Cell lines (25-40×10^3/well) were cultured for 54 hours, whereas fresh patient-derived T-ALL cells (200×10^3/well) were cultured for 30 hours prior to adding [^3H]-thymidine for 18 hours. After this time point, cells were harvested with a Packard Filter-Mate-96 cell harvester (Perkin Elmer, Waltham, Mass., USA) and counted on Packard Top Count-NXT (Perkin Elmer, Waltham, Mass., USA). Results were expressed as average counts per minute (cpm). In some experiments CCRF-CEM cells were pre-treated with TLR1-TLR2 ligand (Pam3CysK4; 2.5 ug/ml) for 48 hrs, washed, and then cultured in the presence of varying concentrations of FBS. Forty-eight hours later, proliferation (±SD) was determined by ^3H-thymidine incorporation. Alternatively, apoptosis was measured by flow cytometry after staining cells with Annexin-V (BD Pharmingen, San Diego, Calif., USA) and propidium iodide (Sigma). Cell number was counted under microscopy by staining cells with trypan blue. […]

[2] = system: Loucy; test: Proliferation (3H-thymidine) of Loucy; type: cell-based, human; settings: 3H-thymidine uptake, 72 h
Excerpt: as §1, §2

[3] = system: CCRF-CEM; test: Proliferation (3H-thymidine) of CCRF-CEM; type: cell-based, human; settings: 3H-thymidine uptake, 72 h
Excerpt: as §1
(§3) Cells were cultured in a 96-well plate (Corning Costar, Corning, N.Y., USA) with various concentrations of TLR ligands 1-9, starting at 10 μg/ml, in a final volume of 200 ul. TLR ligands were diluted 2-fold. Cell lines (25-40×10^3/well) were cultured for 54 hours, whereas fresh patient-derived T-ALL cells (200×10^3/well) were cultured for 30 hours prior to adding [^3H]-thymidine for 18 hours. After this time point, cells were harvested with a Packard Filter-Mate-96 cell harvester (Perkin Elmer, Waltham, Mass., USA) and counted on Packard Top Count-NXT (Perkin Elmer, Waltham, Mass., USA). Results were expressed as average counts per minute (cpm). In some experiments CCRF-CEM cells were pre-treated with TLR1-TLR2 ligand (Pam3CysK4; 2.5 ug/ml) for 48 hrs, washed, and then cultured in the presence of varying concentrations of FBS. Forty-eight hours later, proliferation (±SD) was determined by ^3H-thymidine incorporation. Alternatively, apoptosis was measured by flow cytometry after staining cells with Annexin-V (BD Pharmingen, San Diego, Calif., USA) and propidium iodide (Sigma). Cell number was counted under microscopy by staining cells with trypan blue.
(§4) The following TLR ligands were purchased from Invivogen (San Diego, Calif., USA): tripalmitoyl-S-(bis(palmitoyloxy)propyl)-Cys-Ser-(Lys)3-Lys (TLR1-2); Poly I:C (TLR3); ultrapure S. Minnesota Lipopolysaccharide (TLR4); S. typhimurium flagellin (TLR5); FSL-1 (TLR2/6); Imiquimod (TLR7); ssRNA40/Lyovec (TLR8); CpG-ODN 2006 (TLR9).

[4] = system: CEM-C2; test: Proliferation (3H-thymidine) of CEM-C2; type: cell-based, human; settings: 3H-thymidine uptake, 72 h
Excerpt: as §1, §2

[5] = system: stage IA cutaneous T-lymphoma; settings: topical cream containing 5% Imiquimod; cited from earlier work
[6] = system: Hut 102; test: Proliferation (3H-thymidine) of Hut 102; type: cell-based, human; settings: 3H-thymidine uptake, 72 h
Excerpt: as §1, with “In other experiments, protein lysate was collected using the Full Moon Biosystems (Sunnyvale, Calif., USA) buffer prior to protein examination by western blot or protein array.” left out
as §2, with “TLR ligands were diluted 2-fold. Cell lines (25-40×10^3/well) were cultured for 54 hours, whereas fresh patient-derived T-ALL cells (200×10^3/well) were cultured for 30 hours prior to adding [^3H]-thymidine for 18 hours.” left out, “In some experiments CCRF-CEM cells were pre-treated with TLR1-TLR2 ligand (Pam3CysK4; 2.5 ug/ml) for 48 hrs, washed, and then cultured in the presence of varying concentrations of FBS.” left out

[7] = system: HSB-2; test: Proliferation (3H-thymidine) of HSB-2; type: cell-based, human
Excerpt: as §1, §3, §4

[8] = system: Hut-78; test: Proliferation (3H-thymidine) of Hut-78; type: cell-based, human; settings: 3H-thymidine uptake, 72 h
Excerpt: as §1, with “In other experiments, protein lysate was collected using the Full Moon Biosystems (Sunnyvale, Calif., USA) buffer prior to protein examination by western blot or protein array.” left out
as §2, with “TLR ligands were diluted 2-fold. Cell lines (25-40×10^3/well) were cultured for 54 hours, whereas fresh patient-derived T-ALL cells (200×10^3/well) were cultured for 30 hours prior to adding [^3H]-thymidine for 18 hours.” left out, “In some experiments CCRF-CEM cells were pre-treated with TLR1-TLR2 ligand (Pam3CysK4; 2.5 ug/ml) for 48 hrs, washed, and then cultured in the presence of varying concentrations of FBS.” left out

[9] = system: Primary T-cells Activated; test: Proliferation (3H-thymidine) of activated primary T-cells; type: cell-based, human; settings: Primary T-cells, Activated
Excerpt: as §1, §3, §4

[10] = system: H9; test: Proliferation (3H-thymidine) of H9; type: cell-based, human; settings: H9; 3H-thymidine uptake, 72 h
Excerpt: as §1, §3, §4

[11] = system: HH; test: Proliferation (3H-thymidine) of HH; type: cell-based, human; settings: 3H-thymidine uptake, 72 h
Excerpt: as §1, with “In other experiments, protein lysate was collected using the Full Moon Biosystems (Sunnyvale, Calif., USA) buffer prior to protein examination by western blot or protein array.” left out
as §2, with “TLR ligands were diluted 2-fold. Cell lines (25-40×10^3/well) were cultured for 54 hours, whereas fresh patient-derived T-ALL cells (200×10^3/well) were cultured for 30 hours prior to adding [^3H]-thymidine for 18 hours.” left out, “In some experiments CCRF-CEM cells were pre-treated with TLR1-TLR2 ligand (Pam3CysK4; 2.5 ug/ml) for 48 hrs, washed, and then cultured in the presence of varying concentrations of FBS.” left out

[12] = system: Molt-4; test: Proliferation (3H-thymidine) of Molt-4; type: cell-based, human; settings: 3H-thymidine uptake, 72 h
Excerpt: as §1, with “In other experiments, protein lysate was collected using the Full Moon Biosystems (Sunnyvale, Calif., USA) buffer prior to protein examination by western blot or protein array.” left out
as §2, with “TLR ligands were diluted 2-fold. Cell lines (25-40×10^3/well) were cultured for 54 hours, whereas fresh patient-derived T-ALL cells (200×10^3/well) were cultured for 30 hours prior to adding [^3H]-thymidine for 18 hours.” left out, “In some experiments CCRF-CEM cells were pre-treated with TLR1-TLR2 ligand (Pam3CysK4; 2.5 ug/ml) for 48 hrs, washed, and then cultured in the presence of varying concentrations of FBS.” left out

[13] = system: CEM-C1; test: Proliferation (3H-thymidine) of CEM-C1; type: cell-based, human; settings: 3H-thymidine uptake, 72 h
Excerpt: as §1, §2

[14] = system: SupT1; test: Proliferation (3H-thymidine) of SupT1; type: cell-based, human; settings: SupT1
Excerpt: as §1, §3, §4

[15] = system: CEM-C7; test: Proliferation (3H-thymidine) of CEM-C7; type: cell-based, human; settings: 3H-thymidine uptake, 72 h
Excerpt: as §1, §3, §4

[16] = system: MO; test: Proliferation (3H-thymidine) of MO; type: cell-based, human; settings: 3H-thymidine uptake, 72 h
Excerpt: as §1, with “In other experiments, protein lysate was collected using the Full Moon Biosystems (Sunnyvale, Calif., USA) buffer prior to protein examination by western blot or protein array.” left out
as §2, with “TLR ligands were diluted 2-fold. Cell lines (25-40×10^3/well) were cultured for 54 hours, whereas fresh patient-derived T-ALL cells (200×10^3/well) were cultured for 30 hours prior to adding [^3H]-thymidine for 18 hours.” left out, “In some experiments CCRF-CEM cells were pre-treated with TLR1-TLR2 ligand (Pam3CysK4; 2.5 ug/ml) for 48 hrs, washed, and then cultured in the presence of varying concentrations of FBS.” left out

[17] = system: Primary T-cells Non-Act; test: Proliferation (3H-thymidine) of non-activated primary T-cells; type: cell-based, human; settings: 3H-thymidine uptake, 72 h
Excerpt: as §1, with “In other experiments, protein lysate was collected using the Full Moon Biosystems (Sunnyvale, Calif., USA) buffer prior to protein examination by western blot or protein array.” left out
as §2, with “TLR ligands were diluted 2-fold. Cell lines (25-40×10^3/well) were cultured for 54 hours, whereas fresh patient-derived T-ALL cells (200×10^3/well) were cultured for 30 hours prior to adding [^3H]-thymidine for 18 hours.” left out, “In some experiments CCRF-CEM cells were pre-treated with TLR1-TLR2 ligand (Pam3CysK4; 2.5 ug/ml) for 48 hrs, washed, and then cultured in the presence of varying concentrations of FBS.” left out

[18] = system: A375 melanoma cells; test: A375 melanoma xenograft model; settings: IRAK-1,-4 inhibitor 35 mg/kg intratumorally, vinblastine 0.25 mg/kg i.p.; control 17 days
Experimental: (A-B) NSG mice (n=5) were injected subcutaneously with A375 melanoma cells. When tumors reached a size of approximately 50 mm^2 mice remained untreated or injected intraperitoneally with vinblastine mg/kg; administered every 2 days for 10 days), or peritumorally with IRAK-1,-4 inhibitor (35 mg/kg), or vinblastine plus IRAK.-1,-4 inhibitor. Tumor sizes were calculated by measuring perpendicular by longitudinal diameter;*, P<0.05. Mouse survival data were analyzed using the exact log-rank test;*, P<0.05, **P<0.001.
NOD.Cg-Prkdc^scid Il2rg^tmWJZ; SzJ IL2RG (NSG) mice (Jackson Laboratories, Bar Harbor, Me.) were subcutaneously (s.c.) injected with 2.5×10^6 A375 melanoma cells delivered in PBS. […] When tumors reached a size of approximately 50 mm^2 mice were injected intratumorally (i.t.) with 35 mg/kg of IRAK-1,-4 inhibitor or an equal volume of vehicle (DMSO). Mice were intraperitoneally (i.p.) injected with vinblastine (0.25 mg/kg) every 2 days for 5 days starting on the same day that mice received with IRAK-1,-4 inhibitor. Tumor sizes were analyzed using a mixed model approach for repeated measurements and mouse survival data were analyzed with the exact log-rank test.

[19] = system: A375 melanoma cells; test: Western blot of cleaved PARP and caspase-3; type: cell-based, human; settings: single agent alone, 48 hrs, FIG. 8D
Experimental: FIG. 8. […] (A) A375 and Malme-3M melanoma cells were cultured with or without 2.5 μM of IRAK-1,-4 and in the presence varying concentrations of vinblastine, cisplatin or 5′ Fluorouracil. Forty-eight hours later apoptosis was evaluated by staining cells with annexin-V and propidium iodide and analyzed by flow cytometry. (B) A375 cells were transfected via electroporation with siRNA-IRAK-1,-4. IRAK-1 protein levels were examined by Western blotting. […], A375-psiRNA-hIRAK-1, A375-psiRNA-hIRAK-4, or cells expressing both psiRNA-hIRAK-1 and -4 were cultured in the presence of vinblastine (100 nmol/L) for 48 hours and apoptosis was examined by flow cytometry. (C) A375 melanoma cells were cultured in the presence of vehicle alone (DMSO) or various concentrations of IRAK-1,-4. Forty-eight hours later cell lysates were used to analyze the expression of levels of cleaved PARP or caspase-3 by Western blots. (D) A375 melanoma cells were cultured with or without 2.5 μM of IRAK.-1,-4 and in the presence or absence of vinblastine for 48 hrs. PARP and caspase-3 levels were determined by Western blot.
Total cell extracts were prepared from melanoma cells. […] Melanoma tissue arrays were purchased from US Biomax, Inc (Rockville, Md.). For immunohistochemical staining samples were stained with mouse monoclonal anti-human phosphor-IRAK.-4 antibody (Abnova; dilution, 3.5 μg/ml) or normal mouse serum. Tissue histology sections (5-μm-thick) were deparaffinized, hydrated, heated in boiling 10 mmol/L sodium citrate (pH 6.0), for antigen retrieval, for 30 min and washed in Tris buffer. Peroxide blocking was done with 3% […] in methanol at room temperature for 15 min, followed by 10% fetal bovine serum in TBS-t for 30 min at room temperature. Primary antibody incubation was done overnight at 4° C. Secondary antibody incubation with horse anti-mouse (1:200; Vector Laboratories, Burlingame, Calif.) was done for 1 hr, followed by application of diaminobenzidine chromogen for 5 min. The slides were then counterstained with hematoxylin and topped with a coverslip. IHC specimens were analyzed using “quick score” system in which the intensity of the immunohistochemical reaction was scored by multiplying the intensity 1 (weak), 2 (moderate), and 3 (strong) and the proportion of cells staining positively 0 (<10%), 1 (10-25%), 2 (26-50%), 3 (51-75%) or 4 (>75%).

CC(C)Cn1cnc2c(N)nc3ccccc3c21 [Imiquimod]
Proliferative effects of TLR ligands ([1]; 3H-thymidine uptake, 72 h): − (reduced proliferation) | TLR ligand concentration in parentheses below the symbol ([1]; no unit in table (μg/ml)): (10) | Proliferative effects of TLR ligands [2]: ∘ | Proliferative effects of TLR ligands [3]: ∘ | Proliferative effects of TLR ligands [4]: ∘ | treatment outcome [5]: successfully treated | Proliferative effects of TLR ligands [6]: ∘ | Proliferative effects of TLR ligands ([7]; 3H-thymidine uptake, 72 h): − (reduced proliferation) | TLR ligand concentration in parentheses below the symbol ([7]; no unit in table (μg/ml)): (1.2) | Proliferative effects of TLR ligands [8]: ∘ | Proliferative effects of TLR ligands ([9]; 3H-thymidine uptake, 72 h): − (reduced proliferation) | TLR ligand concentration in parentheses below the symbol ([9]; no unit in table (μg/ml)): (5) | Proliferative effects of TLR ligands [10]: ∘ | Proliferative effects of TLR ligands [11]: ∘ | Proliferative effects of TLR ligands [12]: ∘ | Proliferative effects of TLR ligands [13]: ∘ | Proliferative effects of TLR ligands ([14]; 3H-thymidine uptake, 72 h): − (reduced proliferation) | TLR ligand concentration in parentheses below the symbol ([14]; no unit in table (μg/ml)): (0.6) | Proliferative effects of TLR ligands [15]: ∘ | Proliferative effects of TLR ligands [16]: ∘ | Proliferative effects of TLR ligands [17]: ∘

CC[C@]1(O)C[C@@H]2CN(CCc3c([nH]c4ccccc34)[C@@](C(=O)OC)(c3cc4c(cc3OC)N(C)[C@H]3[C@@](O)(C(=O)OC)[C@H](OC(C)=O)[C@]5(CC)C=CCN6CC[C@]43[C@@H]65)C2)C1 [vinblastine]
median survival [18]: 22 days | levels of cleaved PARP and caspase-3 [19]: little effect

— patent US9464326B2, “Total and phosphorylated IL-1 receptor-associated kinase-1 and IL-1 receptor-associated kinase-4 as a biomarker for cancer progression and chemotherapy resistance” (University of Maryland, Baltimore, priority 2012, dated 2016)
